In PMC3223156, “Designer Lipid-Like Peptides: A Class of Detergents for Studying Functional Olfactory Receptors Using Commercial Cell-Free Systems” (PLoS ONE, 2011):

Tests used:
Test in all cases: microscale thermophoresis, native tryptophan fluorescence, Hill fit n = […]
Type in all cases: binding
Conditions in all cases: read-out: Measured EC50
mOR174-9 = biological target: T1, mOR174-9 (Mus musculus, UniProt Q920P2)
T1 construct: gene Or5d18; full length; C-terminal GSSG linker plus rho1D4 tag (TETSQVAPA); E. coli cell-free expression in Brij-35, purified in FC-14
T1 sequence (Q920P2 1-313): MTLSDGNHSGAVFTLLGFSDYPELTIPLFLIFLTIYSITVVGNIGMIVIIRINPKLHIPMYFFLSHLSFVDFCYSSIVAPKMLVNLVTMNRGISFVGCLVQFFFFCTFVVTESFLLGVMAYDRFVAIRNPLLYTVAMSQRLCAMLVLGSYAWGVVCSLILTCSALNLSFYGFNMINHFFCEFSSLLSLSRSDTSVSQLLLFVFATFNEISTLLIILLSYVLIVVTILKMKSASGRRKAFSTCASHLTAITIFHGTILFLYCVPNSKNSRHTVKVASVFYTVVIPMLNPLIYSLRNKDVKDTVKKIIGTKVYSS

mOR174-4 = biological target: T2, mOR174-4 (Mus musculus, UniProt Q920P1)
T2 construct: gene Or5d47; full length; C-terminal GSSG linker plus rho1D4 tag (TETSQVAPA); E. coli cell-free expression in Brij-35, purified in FC-14
T2 sequence (Q920P1 1-318): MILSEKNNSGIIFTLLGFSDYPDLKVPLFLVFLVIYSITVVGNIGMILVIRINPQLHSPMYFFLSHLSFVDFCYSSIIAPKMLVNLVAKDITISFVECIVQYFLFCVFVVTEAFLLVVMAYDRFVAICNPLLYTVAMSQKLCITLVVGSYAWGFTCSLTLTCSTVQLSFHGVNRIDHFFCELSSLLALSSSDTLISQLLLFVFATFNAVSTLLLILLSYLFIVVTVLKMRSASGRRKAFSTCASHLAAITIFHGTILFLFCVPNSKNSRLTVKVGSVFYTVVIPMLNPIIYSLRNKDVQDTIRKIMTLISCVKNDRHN

mOR103-15 = biological target: T3, mOR103-15 (Mus musculus, UniProt Q9QWU6)
T3 construct: gene Or6a2; full length; C-terminal GSSG linker plus rho1D4 tag (TETSQVAPA); E. coli cell-free expression in Brij-35, purified in FC-14
T3 sequence (Q9QWU6 1-327): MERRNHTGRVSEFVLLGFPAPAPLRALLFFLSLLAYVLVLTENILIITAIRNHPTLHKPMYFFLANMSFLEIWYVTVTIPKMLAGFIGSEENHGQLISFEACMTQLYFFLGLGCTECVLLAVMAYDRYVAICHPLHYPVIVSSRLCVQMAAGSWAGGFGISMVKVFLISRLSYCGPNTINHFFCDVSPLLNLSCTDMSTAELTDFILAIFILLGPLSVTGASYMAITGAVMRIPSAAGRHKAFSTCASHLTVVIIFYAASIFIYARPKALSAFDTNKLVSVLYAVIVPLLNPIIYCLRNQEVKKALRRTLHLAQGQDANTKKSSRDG

Row | Compound | EC50 (mOR174-9) | EC50 (mOR174-4) | EC50 (mOR103-15)
1 | CCOc1cc(C=O)ccc1O [Ethyl Vanillin] | 4.9 ± 3.5 µM | 7 ± 2 µM | –
2 | CCCCCCC=O [Heptanal] | – | – | 2 ± 0.7 µM
